Several values for one entry are separate records, joined by “and”; a condition that tells them apart may be missing. Equal values may be shown once.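 Exposure lasted 48 hours, with cells grown in 96-well plates and compounds tested at five concentrations. Abbreviation: GI50, concentration required for 50% inhibition of growth. TGI denotes the concentration required for complete inhibition of growth.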

Some test systems named below: U251 CNS; OVCAR-4 ovarian; DLD-1 colon; COLO 205 colon; HL-60(TB) leukemia; OVCAR-3 ovarian; IGROV1 ovarian; SK-MEL-2 melanoma; A549 NSCLC; SNB-78 CNS.
What all share (assay): growth of human tumour cells (NCI), 48 h

As for `COC1OC(COCc2ccc(Cl)cc2)C(OCc2ccc(Cl)cc2)C1O` (stereo not given), the TGI is 29.1 µM in the experiment on U251 CNS; > 100 µM with OVCAR-4 ovarian; 34.1 µM with DLD-1 colon; 34.3 µM in the experiment on COLO 205 colon; 32.2 µM in the experiment on HL-60(TB) leukemia; 42.8 µM in the experiment with OVCAR-3 ovarian. Also, the TGI was found to be 50.9 µM in the experiment on IGROV1 ovarian, 30.6 µM with SK-MEL-2 melanoma and 37.5 µM in the experiment with A549 NSCLC.

Regarding `COC(=O)C1C(=O)O[C@@H](c2ccc(OC)cc2)C1C(=O)OC` (stereo not given in full), the TGI in the experiment on U251 CNS, in the experiment with OVCAR-4 ovarian, with DLD-1 colon, in the experiment with COLO 205 colon, in the experiment on OVCAR-3 ovarian and in the experiment on IGROV1 ovarian was > 100 µM each time. Moreover, the TGI in the experiment on A549 NSCLC is > 100 µM.

Turning to `COC(=O)C1C2CC3C(OC(=O)C31)C2I` (stereo not given), the TGI with SNB-78 CNS, with U251 CNS, in the experiment on OVCAR-4 ovarian, in the experiment with COLO 205 colon, in the experiment on HL-60(TB) leukemia and in the experiment on OVCAR-3 ovarian was > 100 µM each time. For the same compound, the TGI in the experiment with IGROV1 ovarian, in the experiment with SK-MEL-2 melanoma and in the experiment with A549 NSCLC was > 100 µM in each case.

As to `CC1=C(C)C(=O)c2c(cc3c4ccccc4ccn23)C1=O`, the TGI in the experiment on U251 CNS, in the experiment with DLD-1 colon, in the experiment with COLO 205 colon, with OVCAR-3 ovarian, with IGROV1 ovarian and in the experiment with SK-MEL-2 melanoma was > 100 µM each time. Besides, the TGI in the experiment on A549 NSCLC is > 100 µM.

On to `[Ce+3].[Cl-].[O-]/N=C(\c1ccccc1)c1ccccn1.[O-]/N=C(\c1ccccc1)c1ccccn1.[O-]/N=C(\c1ccccc1)c1ccccn1`, for which the GI50 in the experiment on U251 CNS is > 100 µM; in the experiment with OVCAR-4 ovarian, 55 µM; with DLD-1 colon it was 40 µM; in the experiment on COLO 205 colon, 33.1 µM; in the experiment with HL-60(TB) leukemia, 18.7 µM; in the experiment with OVCAR-3 ovarian it was 21.4 µM. Further, the GI50 in the experiment with IGROV1 ovarian was 39.6 µM; in the experiment on SK-MEL-2 melanoma, 30.9 µM; in the experiment on A549 NSCLC it was 42.4 µM. The TGI in the experiment with U251 CNS was > 100 µM; in the experiment with OVCAR-4 ovarian, > 100 µM; with DLD-1 colon, > 100 µM; with COLO 205 colon, > 100 µM; in the experiment with HL-60(TB) leukemia it was 60.2 µM; in the experiment with OVCAR-3 ovarian, 90.3 µM. Also, the results for the TGI in the experiment on IGROV1 ovarian, in the experiment with SK-MEL-2 melanoma and with A549 NSCLC were > 100 µM, 76.6 µM and > 100 µM, respectively.

`CNC(=O)c1cc(Oc2ccc3nc(NC(=O)c4cc(C(F)(F)F)cc(C(F)(F)F)c4)sc3c2)ccn1`: the GI50 is 3.65 µM with U251 CNS; 3.12 µM in the experiment on OVCAR-4 ovarian; 2.82 µM with COLO 205 colon; 2.49 µM in the experiment with HL-60(TB) leukemia; 2.32 µM in the experiment on OVCAR-3 ovarian; 4.26 µM in the experiment on IGROV1 ovarian. The GI50 is 2.32 µM in the experiment with SK-MEL-2 melanoma and 3.99 µM in the experiment on A549 NSCLC. Further, the TGI with U251 CNS was 13.7 µM; in the experiment on OVCAR-4 ovarian it was 27.2 µM; in the experiment with COLO 205 colon it was 8.21 µM; in the experiment on HL-60(TB) leukemia it was 5.11 µM; in the experiment with OVCAR-3 ovarian, 6.64 µM; in the experiment with IGROV1 ovarian, 27 µM. Moreover, the figures for the TGI in the experiment with SK-MEL-2 melanoma and in the experiment with A549 NSCLC were 6.7 µM and 14.6 µM, respectively.

Take `S=c1cn[nH]c2ccc(Br)cc12`: the TGI in the experiment with U251 CNS, in the experiment with OVCAR-4 ovarian, in the experiment with COLO 205 colon, with HL-60(TB) leukemia, in the experiment with OVCAR-3 ovarian and in the experiment with IGROV1 ovarian was > 100 µM in each case. Besides, the TGI with SK-MEL-2 melanoma was 71.3 µM; in the experiment on A549 NSCLC it was > 100 µM.

In the case of `Nc1nn(C(=O)Nc2ccc(Cc3ccccc3)cc2)c2ccc(Cl)cc12`, the GI50 is 13 µM in the experiment with U251 CNS; 1.48 µM with OVCAR-4 ovarian; 1.92 µM with COLO 205 colon; 6.57 µM with HL-60(TB) leukemia; 7.14 µM with OVCAR-3 ovarian; 19.9 µM in the experiment with IGROV1 ovarian. Besides, the figures for the GI50 with SK-MEL-2 melanoma and in the experiment on A549 NSCLC were 16.5 µM and 5.76 µM, respectively. For the same compound, the TGI with U251 CNS was 29.1 µM; in the experiment on OVCAR-4 ovarian it was 49 µM; in the experiment on COLO 205 colon, 28.9 µM; with HL-60(TB) leukemia, 44.6 µM; in the experiment with OVCAR-3 ovarian it was 21.6 µM; with IGROV1 ovarian, > 100 µM. For the same compound, the TGI was > 100 µM in the experiment on SK-MEL-2 melanoma and > 89.2 µM in the experiment on A549 NSCLC.

Regarding `C[C@@]12CCC[C@@](C)(C(=O)O)C1CC[C@]13C=C(CO)[C@](O)(CCC12)C3` (stereo not given in full), the GI50 in the experiment with U251 CNS, in the experiment on OVCAR-4 ovarian, with COLO 205 colon, with HL-60(TB) leukemia, in the experiment with OVCAR-3 ovarian and in the experiment on IGROV1 ovarian was > 100 µM throughout. In addition, the GI50 with SK-MEL-2 melanoma and in the experiment with A549 NSCLC was > 100 µM in each case. Besides, the TGI with U251 CNS, in the experiment with OVCAR-4 ovarian, in the experiment on COLO 205 colon, in the experiment on HL-60(TB) leukemia, in the experiment with OVCAR-3 ovarian and in the experiment with IGROV1 ovarian was > 100 µM throughout. The TGI with SK-MEL-2 melanoma and in the experiment on A549 NSCLC was > 100 µM each time.

As for `Nc1ccccc1S(=O)c1ccccc1` (stereo not given), the TGI in the experiment on U251 CNS, in the experiment on OVCAR-4 ovarian, with COLO 205 colon, with HL-60(TB) leukemia, in the experiment on OVCAR-3 ovarian and in the experiment with IGROV1 ovarian was > 100 µM throughout. The TGI in the experiment with SK-MEL-2 melanoma and in the experiment with A549 NSCLC was > 100 µM in each case.

Take `O=C(/C=C/c1ccccc1Cl)c1ccc(O)cc1`: the GI50 is 3.41 µM in the experiment on U251 CNS; 10.6 µM with OVCAR-4 ovarian; 12.8 µM in the experiment with COLO 205 colon; 3.22 µM in the experiment with HL-60(TB) leukemia; 3.46 µM with OVCAR-3 ovarian; 2.25 µM with IGROV1 ovarian. Moreover, the GI50 in the experiment on SK-MEL-2 melanoma was 15 µM; in the experiment with A549 NSCLC, 7.33 µM. In addition, the TGI is 12.7 µM with U251 CNS; 24.9 µM in the experiment with OVCAR-4 ovarian; 34.8 µM with COLO 205 colon; > 23.2 µM in the experiment on HL-60(TB) leukemia; 9.22 µM with OVCAR-3 ovarian; 5.25 µM in the experiment with IGROV1 ovarian. The figures for the TGI in the experiment with SK-MEL-2 melanoma and in the experiment with A549 NSCLC were 31.2 µM and 25.1 µM, respectively.

Regarding `COc1ccc(Nc2nc(NCc3ccccc3)c3ccccc3n2)cc1`, the GI50 is 2.17 µM in the experiment on U251 CNS; 3.11 µM with OVCAR-4 ovarian; 1.86 µM with COLO 205 colon; 2.04 µM in the experiment on HL-60(TB) leukemia; 2.35 µM in the experiment on OVCAR-3 ovarian; 7.12 µM in the experiment on IGROV1 ovarian. Further, the GI50 in the experiment on SK-MEL-2 melanoma was 8.72 µM; in the experiment with A549 NSCLC, 3.78 µM. For the same compound, the TGI with U251 CNS stood at 3.97 µM; in the experiment on OVCAR-4 ovarian, 14.8 µM; with COLO 205 colon, 3.33 µM; in the experiment on HL-60(TB) leukemia, 4.2 µM; in the experiment on OVCAR-3 ovarian it was 5.73 µM; in the experiment with IGROV1 ovarian, 25.7 µM. In addition, the TGI in the experiment with SK-MEL-2 melanoma came out at 21.7 µM; with A549 NSCLC, 16.5 µM.

Take `C=C1C(=O)O[C@H]2[C@H]1CC/C(COC(=O)NCc1c[nH]c3ccc(OC)cc13)=C\CC[C@@]1(C)O[C@@H]21`: the GI50 is 3.39 µM in the experiment on U251 CNS; 2.14 µM in the experiment on OVCAR-4 ovarian; 1.22 µM in the experiment on COLO 205 colon; 0.255 µM in the experiment on HL-60(TB) leukemia; 0.695 µM in the experiment with OVCAR-3 ovarian; 2.55 µM in the experiment with IGROV1 ovarian. Also, the figures for the GI50 in the experiment with SK-MEL-2 melanoma and with A549 NSCLC were 6.27 µM and 3.26 µM, respectively. For the same compound, the TGI with U251 CNS came to 14 µM; in the experiment with OVCAR-4 ovarian, 11.8 µM; in the experiment with COLO 205 colon, 2.71 µM; in the experiment on HL-60(TB) leukemia, 1.88 µM; with OVCAR-3 ovarian, 2.1 µM; with IGROV1 ovarian it was 7.38 µM. The TGI in the experiment with SK-MEL-2 melanoma stood at 21.2 µM; in the experiment on A549 NSCLC, 15 µM.

For `CCNC(=O)Nc1ccc(-c2nc3c(c(N4CCOC[C@@H]4C)n2)CCN(C2COC2)C3)cc1`, the GI50 is 0.357 µM and 0.413 µM in the experiment with U251 CNS; 0.154 µM and 0.259 µM in the experiment on OVCAR-4 ovarian; 0.289 µM and 0.268 µM with COLO 205 colon; 7.44 µM and 4.61 µM in the experiment on HL-60(TB) leukemia; 0.355 µM and 0.229 µM in the experiment on OVCAR-3 ovarian; 0.115 µM and 0.071 µM with IGROV1 ovarian. Further, the GI50 was 0.295 µM and 0.392 µM in the experiment with SK-MEL-2 melanoma; 0.354 µM and 0.384 µM in the experiment with A549 NSCLC. The TGI is > 100 µM in the experiment with U251 CNS; 1.71 µM and > 7.24 µM in the experiment with OVCAR-4 ovarian; > 100 µM in the experiment on COLO 205 colon; > 100 µM in the experiment with HL-60(TB) leukemia; > 69.5 µM with OVCAR-3 ovarian; 5.38 µM and 0.751 µM in the experiment on IGROV1 ovarian. Moreover, the TGI in the experiment on SK-MEL-2 melanoma was 3 µM and 3.43 µM; with A549 NSCLC, > 100 µM.

Turning to `Cc1ccccc1NC(=O)N/C(N)=N/c1nc2ccccc2s1`, the GI50 in the experiment with U251 CNS was 0.0547 µM; in the experiment with OVCAR-4 ovarian it was 0.667 µM; in the experiment on COLO 205 colon, 0.0514 µM; in the experiment with HL-60(TB) leukemia it was 0.0285 µM; with OVCAR-3 ovarian, 0.0358 µM; in the experiment with IGROV1 ovarian, 0.0796 µM. Moreover, the GI50 in the experiment on SK-MEL-2 melanoma is > 100 µM; in the experiment on A549 NSCLC it was 0.0871 µM. In addition, the TGI is > 100 µM with U251 CNS; > 100 µM in the experiment with OVCAR-4 ovarian; 4.28 µM in the experiment with COLO 205 colon; 0.15 µM with HL-60(TB) leukemia; 0.267 µM in the experiment with OVCAR-3 ovarian; > 100 µM in the experiment with IGROV1 ovarian. Besides, the TGI with SK-MEL-2 melanoma and with A549 NSCLC was > 100 µM each time.

As to `Cn1nc(-c2ccccc2)c(C(=O)/C=C/c2ccccc2)c(N2CCCCC2)c1=O`, the TGI in the experiment with U251 CNS was > 100 µM; with DLD-1 colon, > 100 µM; with COLO 205 colon, > 100 µM; with HL-60(TB) leukemia it was 12.3 µM; with IGROV1 ovarian, > 100 µM; in the experiment with A549 NSCLC, > 100 µM.

These data come from PubChem BioAssay (NCI).
